The target in series [1] is Human Serum Albumin (HSA) (Homo sapiens (Human), UniProt P02768). The experiment in a line: Chromatographic determination of Human Serum Albumin (HSA) binding. Particulars: ChiralPak HSA column, retention time converted to % HSA. It is filed as in vitro ADME. The procedure: 5B. Chromatographic Determination of Human Serum Albumin (HSA) Assay
Chromatographic determination of Human Serum Albumin (HSA) values was performed on a UPLC-MS system using a ChiralPak® HSA column (p/n: 58469AST) from Sigma Aldrich. Mobile phase A consisted of 50 mM ammonium acetate buffer in water adjusted to pH=7.4, and mobile phase B was 2-propanol. The column compartment was kept at constant temperature of 30° C. Determination of retention time on the HSA column was performed by injecting […] of 0.5 mM of compound (in DMSO) using a linear gradient from 0%-30% B in 2.5 minutes, followed by a hold at 30% B for 2 minutes, and the final equilibration step from […] in 1.5 minutes, for a total run time of 6 minutes. Flow rate was kept constant throughout the gradient and set to 1.8 mL/min. Compound retention time on the HSA column was converted to % HSA values according to a previously published protocol (Valko, et. al, 2003) correlating column retention times to standard plasma protein binding (PPB) values obtained from dialysis experiments. HSA data for certain compounds are summarized below in Table 8 below.
Valko, K., Nunhuck, S., Bevan, C., Abraham, M. H., Reynolds, D. P. Fast Gradient HPLC Method to Determine Compounds Binding to Human Serum Albumin. Relationships with Octanol/Water and Immobilized Artificial Membrane Lipophilicity. J. of Pharm. Sci. 2003, 92, 2236-2248.

In another series the target is F508del-CFTR (Homo sapiens (Human), UniProt P13569, DEL508-508). The experiment in a line: Membrane potential optical (fluorescent voltage sensing dye, FLIPR III) HTS assay for F508del-CFTR modulators. It is filed as cell-based. The gist of the method:
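NIH3T3 mouse fibroblasts stably expressing F508del-CFTR were seeded on matrigel-coated plates for 18–24 h at 37 °C. For correction assays they were cultured with or without compound for that period. Membrane potential was read on FLIPR III with voltage-sensing dyes, using a pH 7.4 NaCl/HEPES bath and a chloride-free gluconate substitute solution.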

The next series in a line: Rat IV and PO PK studies. The series is classed as in vivo, male Sprague-Dawley rats. Particulars: male, Sprague-Dawley, plasma; for bioavailability / AUC: 3 mg/kg, oral; for bioavailability: read-out: Rat po % F; for clearance: intravenous, 3.0 mg/kg, read-out: Rat iv CL. The procedure:
5C. Experimental Protocol for Rat IV and PO PK Studies
[…] […] Analyses of plasma and dose preparations were performed using LC/MS/MS.
Plasma concentration-time profiles of the tested compound in Sprague-Dawley rats at scheduled (nominal) sampling times were analyzed by noncompartmental pharmacokinetic methods using PK function within Watson LIMS software, Version 7.4.2 (Thermo Scientific Inc, Waltham, Mass.). AUC values were calculated using the linear trapezoidal rule.

In a further series the target is human PXR (Homo sapiens (Human), UniProt O75469). The experiment in a line: PXR assay (PXR mediated CYP3A4 induction, DPX-2 cell line). The series is classed as cell-based. Particulars: DPX-2 cells, 48 hours, 0.1 to 60 μM. The protocol: 5D. Experimental Protocol for PXR Assay
Chain of human PXR (O75469 whole entry): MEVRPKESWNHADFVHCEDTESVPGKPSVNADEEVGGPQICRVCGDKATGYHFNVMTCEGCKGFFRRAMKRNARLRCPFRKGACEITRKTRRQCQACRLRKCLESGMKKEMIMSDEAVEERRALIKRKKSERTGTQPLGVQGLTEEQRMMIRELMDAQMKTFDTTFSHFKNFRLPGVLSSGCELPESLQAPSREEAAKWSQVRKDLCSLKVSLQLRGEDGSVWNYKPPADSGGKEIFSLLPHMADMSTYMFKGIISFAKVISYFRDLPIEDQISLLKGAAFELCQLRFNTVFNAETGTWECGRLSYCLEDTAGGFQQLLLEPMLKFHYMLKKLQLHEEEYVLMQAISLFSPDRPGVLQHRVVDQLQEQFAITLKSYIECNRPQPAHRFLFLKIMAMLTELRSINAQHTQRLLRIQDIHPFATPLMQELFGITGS
The propensity for PXR mediated CYP3A4 induction is assessed using the DPX-2 cell line in vitro. This cell line, which has been licensed from Puracyp Inc. was derived from HepG2 cells and has been stably transfected with genes encoding human PXR as well as a modified luciferase reporter linked to the CYP3A4 promoter region and related distal and proximal enhancers.
The assay is run in 384 well format and each test article is administered in 11 doses ranging from 0.1 to 60 μM. On day 1, DPX-2 cells which have previously been expanded in-house and cryopreserved are thawed and seeded in tissue culture plates. The following day, media is changed and cells are cultured in media containing test article, vehicle control or the positive control compound, the clinically validated CYP3A4 inducer rifampicin. Cells are cultured in the presence of test article for 48 hours and then cell viability is assessed using fluorescence based assay (Cell Titer-Fluor, Promega) with an EnVision Plate Reader (PerkinElmer). Subsequently, CYP3A4 transactivation, which is proportional to luciferase activity, is measured by reading luminescense using the Promega One-Glo reagent system using the same plate reader.
Data processing within the Genedata software package allows reporting of max fold induction compared to vehicle control, an EC50 value for CYP3A4 inducers and an 11 point-dose response curve.

Setting [2] is: F508del NIH 3T3 cells, assay 5A-A1, read-out: CFTRdF508 EC50.
The mark [3] stands for this setting: Table 9, read-out: CFTR dF508 EC50.

Read-outs that look alike come from different tables or passages of the source.

What is called EC50 is the midpoint of the concentration-response curve. As usually defined, the AUC is concentration integrated over time. Read a high AUC as more exposure.

Chain of Human Serum Albumin (HSA) (P02768 25-609): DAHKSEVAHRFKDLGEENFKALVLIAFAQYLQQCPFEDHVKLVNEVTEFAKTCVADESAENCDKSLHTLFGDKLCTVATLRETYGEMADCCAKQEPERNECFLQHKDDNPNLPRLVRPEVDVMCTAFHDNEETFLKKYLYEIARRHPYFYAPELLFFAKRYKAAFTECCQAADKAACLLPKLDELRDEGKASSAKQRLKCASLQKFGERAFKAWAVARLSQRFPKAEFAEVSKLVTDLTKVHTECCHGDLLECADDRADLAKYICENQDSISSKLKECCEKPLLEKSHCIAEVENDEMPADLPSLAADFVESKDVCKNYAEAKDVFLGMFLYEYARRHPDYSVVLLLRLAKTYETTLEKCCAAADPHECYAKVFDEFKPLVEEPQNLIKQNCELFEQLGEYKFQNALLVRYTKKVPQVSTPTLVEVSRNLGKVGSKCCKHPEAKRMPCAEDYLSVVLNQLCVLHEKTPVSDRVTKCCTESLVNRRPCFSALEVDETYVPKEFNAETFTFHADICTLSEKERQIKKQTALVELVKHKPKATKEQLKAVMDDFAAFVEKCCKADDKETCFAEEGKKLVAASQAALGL
Chain of F508del-CFTR (P13569 other isoform, or with tags, fused parts or gaps del F508-F508): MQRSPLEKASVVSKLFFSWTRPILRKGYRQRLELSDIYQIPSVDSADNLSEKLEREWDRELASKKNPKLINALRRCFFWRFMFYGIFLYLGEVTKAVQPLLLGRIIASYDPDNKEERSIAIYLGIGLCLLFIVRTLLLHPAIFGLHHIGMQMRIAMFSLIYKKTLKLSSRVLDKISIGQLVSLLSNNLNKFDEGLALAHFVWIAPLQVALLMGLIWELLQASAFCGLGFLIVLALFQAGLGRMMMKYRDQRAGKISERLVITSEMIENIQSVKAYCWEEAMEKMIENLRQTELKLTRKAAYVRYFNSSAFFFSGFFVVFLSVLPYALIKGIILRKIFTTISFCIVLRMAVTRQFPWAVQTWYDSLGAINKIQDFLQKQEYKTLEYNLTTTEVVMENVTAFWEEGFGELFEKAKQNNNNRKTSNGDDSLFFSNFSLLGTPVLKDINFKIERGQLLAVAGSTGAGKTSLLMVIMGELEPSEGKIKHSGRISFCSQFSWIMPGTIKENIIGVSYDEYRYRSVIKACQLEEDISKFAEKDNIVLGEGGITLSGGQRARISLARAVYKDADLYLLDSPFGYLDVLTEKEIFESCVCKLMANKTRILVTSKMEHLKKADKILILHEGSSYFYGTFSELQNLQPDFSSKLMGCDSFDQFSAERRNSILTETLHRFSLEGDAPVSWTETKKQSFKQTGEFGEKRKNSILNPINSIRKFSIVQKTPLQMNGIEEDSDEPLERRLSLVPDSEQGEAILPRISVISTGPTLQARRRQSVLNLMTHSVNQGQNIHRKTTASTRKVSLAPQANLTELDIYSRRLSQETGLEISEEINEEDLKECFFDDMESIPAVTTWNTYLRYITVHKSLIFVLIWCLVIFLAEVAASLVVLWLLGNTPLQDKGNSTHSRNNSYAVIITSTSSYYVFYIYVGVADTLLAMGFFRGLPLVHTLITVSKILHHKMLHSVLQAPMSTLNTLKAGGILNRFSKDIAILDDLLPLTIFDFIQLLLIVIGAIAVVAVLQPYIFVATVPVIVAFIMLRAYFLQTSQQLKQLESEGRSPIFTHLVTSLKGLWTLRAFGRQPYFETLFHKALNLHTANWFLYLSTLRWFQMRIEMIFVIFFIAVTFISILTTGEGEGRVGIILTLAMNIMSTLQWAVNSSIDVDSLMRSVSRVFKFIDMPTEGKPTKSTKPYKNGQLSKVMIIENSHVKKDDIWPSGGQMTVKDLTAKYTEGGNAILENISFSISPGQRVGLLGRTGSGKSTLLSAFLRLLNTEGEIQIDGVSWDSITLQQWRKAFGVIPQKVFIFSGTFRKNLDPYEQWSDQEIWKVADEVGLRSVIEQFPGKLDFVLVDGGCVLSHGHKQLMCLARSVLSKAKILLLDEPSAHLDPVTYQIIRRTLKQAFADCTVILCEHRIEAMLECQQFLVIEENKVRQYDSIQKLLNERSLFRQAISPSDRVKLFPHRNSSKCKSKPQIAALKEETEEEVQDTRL

The molecule `C[C@@H]1CN(c2nc(-n3ccc(OCC4(C(F)(F)F)CC4)n3)ccc2C(=O)NS(=N)(=O)c2ccccc2)C(C)(C)C1` (mixture of isomers) had an HSA binding in series [1] of 98.1%.
The same measure, in the same setting: then `C[C@@H]1CN(c2nc(-n3ccc(OCC4(C(F)(F)F)CC4)n3)ccc2C(=O)NS(=N)(=O)c2ccccc2)C(C)(C)C1` (single isomer, unassigned) [drawing 339], with 97.9%; and `C[C@@H]1CN(c2nc(-n3ccc(OCC4(C(F)(F)F)CC4)n3)ccc2C(=O)NS(=N)(=O)c2ccccc2)C(C)(C)C1` (single isomer, unassigned) [drawing 340], with 98.4%.
On to `C[C@@H]1CN(c2cc(-n3ccc(OCCC4(C(F)(F)F)CC4)n3)ncc2C(=O)NS(=O)(=O)c2ccccc2)C(C)(C)C1` [Comp. 44, (S)—N-(phenylsulfonyl)-6-(3-(2-(1-(trifluoromethyl)cyclopropyl)ethoxy)-1H-pyrazol-1-yl)-4-(2,2,4-trimethylpyrrolidin-1-yl)nicotinamide], for which the EC50 on F508del-CFTR (setting [2]) was in the range of 100 to 1000 nM. Moreover, the half-maximal effective concentration (EC50) at F508del-CFTR (setting [3]) is 620 nM. For the same molecule, in the series “Rat IV and PO PK studies”, the bioavailability came out at 81%, the clearance is 5 mL/min/kg and the AUC was 8500 ng·h/mL. At human PXR, the “PXR Max Induction (% of rifampicin)” value was 18 % of rifampicin.
Take `C[C@@H]1CN(c2nc(-n3ccc(OCC4(C(F)(F)F)CC4)n3)ccc2C(=O)NS(=O)(=O)c2cccc(F)c2)C(C)(C)C1` [Comp. 51, N-(3-Fluorophenyl)sulfonyl-6-[3-[[1-(trifluoromethyl)cyclopropyl]methoxy]pyrazol-1-yl]-2-[(4S)-2,2,4-trimethylpyrrolidin-1-yl]pyridine-3-carboxamide]: the 50% effective concentration (EC50) at F508del-CFTR (setting [2]) is less than 100 nM. Further, the concentration for a half-maximal effect (EC50) on F508del-CFTR (setting [3]) was found to be 50 nM. In “Rat IV and PO PK studies”, the bioavailability came to 100%, the clearance is 5.2 mL/min/kg and the AUC was 10500 ng·h/mL. On human PXR, the “PXR Max Induction (% of rifampicin)” value is recorded as 17 % of rifampicin.
Consider `COc1ccccc1S(=O)(=O)NC(=O)c1ccc(-n2ccc(OCC3(C(F)(F)F)CC3)n2)nc1N1C[C@@H](C)CC1(C)C` [Comp. 53, N-(2-methoxyphenyl)sulfonyl-6-[3-[[l-(trifluoromethyl)cyclopropyl]methoxy]pyrazol-1-yl]-2-[(4S)-2,2,4-trimethylpyrrolidin-1-yl]pyridine-3-carboxamide], for which the EC50 on F508del-CFTR (setting [2]) was less than 100 nM. Further, the EC50 at F508del-CFTR (setting [3]) stood at 40 nM. Also, in the series “Rat IV and PO PK studies”, the bioavailability stood at 98%, the clearance was found to be 2.3 mL/min/kg and the exposure (AUC) is 13700 ng·h/mL. Moreover, the “PXR Max Induction (% of rifampicin)” value at human PXR is 39 % of rifampicin.
Regarding `C[C@@H]1CN(c2nc(-n3ccc(OCC4(C(F)(F)F)CC4)n3)ccc2C(=O)NS(=O)(=O)c2ccccc2)C(C)(C)C1` [Compound 14, N-(Benzenesulfonyl)-6-[3-[[1-(trifluoromethyl)cyclopropyl]methoxy]pyrazol-1-yl]-2-[(4S)-2,2,4-trimethylpyrrolidin-1-yl]pyridine-3-carboxamide], the concentration giving a half-maximal response (EC50) on F508del-CFTR (setting [2]) is less than 100 nM. Moreover, the EC50 at F508del-CFTR (setting [3]) was found to be 40 nM. In “Rat IV and PO PK studies”, the bioavailability was determined as 58%, the clearance turned out to be 2 mL/min/kg and the AUC is 14700 ng·h/mL. Besides, the “PXR Max Induction (% of rifampicin)” value on human PXR is 19 % of rifampicin.
Turning to `C[C@@H]1CN(c2nc(-n3ccc(OCC4C(C)(C)C4(C)C)n3)ccc2C(=O)NS(=O)(=O)c2cccc(F)c2)C(C)(C)C1` [Compound 16, N-(3-Fluorophenyl)sulfonyl-6-[3-[(2,2,3,3-tetramethylcyclopropyl)methoxy]pyrazol-1-yl]-2-[(4S)-2,2,4-trimethylpyrrolidin-1-yl]pyridine-3-carboxamide], the EC50 at F508del-CFTR (setting [2]) is less than 100 nM. For the same molecule, the EC50 on F508del-CFTR (setting [3]) stood at 20 nM. For the same molecule, in “Rat IV and PO PK studies”, the bioavailability came out at 12%, the clearance was 24.8 mL/min/kg and the AUC amounted to 250 ng·h/mL. In addition, the “PXR Max Induction (% of rifampicin)” value on human PXR is 2 % of rifampicin.
Regarding `C[C@@H]1CN(c2nc(-n3ccc(OCC4(C(F)(F)F)CC4)n3)ccc2C(=O)NS(=O)(=O)c2ccc(O)cc2)C(C)(C)C1` [Compound 22, N-(4-Hydroxyphenyl)sulfonyl-6-[3-[[1-(trifluoromethyl)cyclopropyl]methoxy]pyrazol-1-yl]-2-[(4S)-2,2,4-trimethylpyrrolidin-1-yl]pyridine-3-carboxamide], the half-maximal effective concentration (EC50) at F508del-CFTR (setting [2]) lay in the range of 100 to 1000 nM. The concentration giving a half-maximal response (EC50) on F508del-CFTR (setting [3]) was determined as 120 nM. Further, in “Rat IV and PO PK studies”, the bioavailability came out at 31%, the clearance was 6.7 mL/min/kg and the area under the curve (AUC) was 3600 ng·h/mL. Besides, on human PXR, the “PXR Max Induction (% of rifampicin)” value is on record as 4 % of rifampicin.
On to `Cc1ccccc1S(=O)(=O)NC(=O)c1ccc(-n2ccc(OCC3(C(F)(F)F)CC3)n2)nc1N1C[C@@H](C)CC1(C)C` [Compound 23, N-(o-Tolylsulfonyl)-6-[3-[[1-(trifluoromethyl)cyclopropyl]methoxy]pyrazol-1-yl]-2-[(4S)-2,2,4-trimethylpyrrolidin-1-yl]pyridine-3-carboxamide], for which the EC50 at F508del-CFTR (setting [2]) is less than 100 nM. Also, the half-maximal effective concentration (EC50) on F508del-CFTR (setting [3]) was 30 nM. In “Rat IV and PO PK studies”, the bioavailability stood at 69%, the clearance is 2.7 mL/min/kg and the AUC was found to be 12500 ng·h/mL. Moreover, the “PXR Max Induction (% of rifampicin)” value at human PXR was 22 % of rifampicin.
Regarding `Cc1ccc(S(=O)(=O)NC(=O)c2ccc(-n3ccc(OCC4(C(F)(F)F)CC4)n3)nc2N2C[C@@H](C)CC2(C)C)cc1` [Compound 24, N-(p-Tolylsulfonyl)-6-[3-[[1-(trifluoromethyl)cyclopropyl]methoxy]pyrazol-1-yl]-2-[(4S)-2,2,4-trimethylpyrrolidin-1-yl]pyridine-3-carboxamide], at F508del-CFTR (setting [2]), the EC50 was less than 100 nM. The EC50 on F508del-CFTR (setting [3]) stood at 70 nM. Besides, in the series “Rat IV and PO PK studies”, the bioavailability came to 98%, the clearance was found to be 2.6 mL/min/kg and the exposure (AUC) came out at 20000 ng·h/mL. Moreover, the “PXR Max Induction (% of rifampicin)” value on human PXR is 9 % of rifampicin.
Take `C[C@@H]1CN(c2nc(-n3ccc(OCC4C5(CC5)C45CC5)n3)ccc2C(=O)NS(=O)(=O)c2ccccc2)C(C)(C)C1` [Compound 64, N-(Benzenesulfonyl)-6-[3-(dispiro[2.0.2.1]heptan-7-ylmethoxy)pyrazol-1-yl]-2-[(4S)-2,2,4-trimethylpyrrolidin-1-yl]pyridine-3-carboxamide]: on F508del-CFTR (setting [2]), the EC50 is less than 100 nM. The half-maximal effective concentration (EC50) at F508del-CFTR (setting [3]) came out at 50 nM. Also, in the series “Rat IV and PO PK studies”, the bioavailability came out at 79%, the clearance is 3.4 mL/min/kg and the AUC was 9000 ng·h/mL. Moreover, the “PXR Max Induction (% of rifampicin)” value on human PXR is reported as 4 % of rifampicin.
In the case of `C[C@@H]1CN(c2nc(-n3ccc(OCC4(C(F)(F)F)CC4)n3)ccc2C(=O)NS(=O)(=O)c2ccccc2)C(C)(C)C1` [drawing 337], in series [1], the HSA binding stood at 99.1%.
